Experimental data reported in article PMC8073005, “Antifungal Activity and DNA Topoisomerase Inhibition of Hydrolysable Tannins from Punica granatum L” (International Journal of Molecular Sciences, 2021).
≈ marks a conversion by molar mass, not a printed value. Where “and” joins values, the source holds several entries; their conditions need not be identical. Identical values can stand only once. Like-named read-outs stand apart in the source and are kept apart here.

Experiments:
[1] = biological target: T1, topoisomerase I from Candida albicans (Candida albicans, UniProt Q00313); assay: Topoisomerase I supercoiled DNA relaxation inhibition; assay type: biochemical
T1 sequence (Q00313 1-778): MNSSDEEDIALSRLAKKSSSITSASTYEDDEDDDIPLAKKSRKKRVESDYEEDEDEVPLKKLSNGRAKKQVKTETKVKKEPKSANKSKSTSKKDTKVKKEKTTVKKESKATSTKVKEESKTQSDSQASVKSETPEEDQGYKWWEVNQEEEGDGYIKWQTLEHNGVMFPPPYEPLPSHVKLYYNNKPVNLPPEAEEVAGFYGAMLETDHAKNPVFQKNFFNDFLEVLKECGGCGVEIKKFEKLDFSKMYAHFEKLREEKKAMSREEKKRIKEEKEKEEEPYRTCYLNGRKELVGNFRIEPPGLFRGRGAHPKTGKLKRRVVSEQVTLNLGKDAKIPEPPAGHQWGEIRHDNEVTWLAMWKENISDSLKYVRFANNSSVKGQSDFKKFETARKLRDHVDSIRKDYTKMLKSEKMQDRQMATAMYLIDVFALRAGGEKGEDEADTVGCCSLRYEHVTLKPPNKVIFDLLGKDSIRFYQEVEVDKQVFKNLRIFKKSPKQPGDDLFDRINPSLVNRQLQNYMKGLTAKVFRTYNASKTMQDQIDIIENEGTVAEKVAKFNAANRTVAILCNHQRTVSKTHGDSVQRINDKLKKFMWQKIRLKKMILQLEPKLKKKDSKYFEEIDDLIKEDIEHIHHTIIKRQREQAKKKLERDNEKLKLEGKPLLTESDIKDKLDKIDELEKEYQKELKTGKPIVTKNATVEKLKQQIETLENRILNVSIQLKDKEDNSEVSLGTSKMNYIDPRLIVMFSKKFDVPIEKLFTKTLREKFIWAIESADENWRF

[2] = system: Candida albicans ATCC 10321; assay: MIC, broth microdilution (human pathogens); assay type: cell-based; conditions: ATCC10321; Candida albicans ATCC 10321; SDB, 30 °C, 48 h; read-out: Minimum inhibitory concentration (MIC)
[3] = system: Candida albicans SC 5314; assay: MIC, broth microdilution (human pathogens); assay type: cell-based; conditions: SC5314; Candida albicans SC 5314; SDB, 30 °C, 48 h; read-out: Minimum inhibitory concentration (MIC)
[4] = system: Candida albicans 1; assay: MIC, broth microdilution (human pathogens); assay type: cell-based; conditions: Candida albicans 1; SDB, 30 °C, 48 h; read-out: Minimum inhibitory concentration (MIC)
[5] = system: Candida albicans 2; assay: MIC, broth microdilution (human pathogens); assay type: cell-based; conditions: Candida albicans 2; SDB, 30 °C, 48 h; read-out: Minimum inhibitory concentration (MIC)
[6] = system: Candida albicans H; assay: MIC, broth microdilution (human pathogens); assay type: cell-based; conditions: Candida albicans H; SDB, 30 °C, 48 h; read-out: Minimum inhibitory concentration (MIC)
[7] = system: Candida albicans 40; assay: MIC, broth microdilution (human pathogens); assay type: cell-based; conditions: Candida albicans 40; SDB, 30 °C, 48 h; read-out: Minimum inhibitory concentration (MIC)
[8] = system: Candida albicans 41; assay: MIC, broth microdilution (human pathogens); assay type: cell-based; conditions: Candida albicans 41; SDB, 30 °C, 48 h; read-out: Minimum inhibitory concentration (MIC)
[9] = system: Candida albicans 44; assay: MIC, broth microdilution (human pathogens); assay type: cell-based; conditions: Candida albicans 44; SDB, 30 °C, 48 h; read-out: Minimum inhibitory concentration (MIC)
[10] = system: Candida parapsilosis; assay: MIC, broth microdilution (human pathogens); assay type: cell-based; conditions: Lodderomyces parapsilosis; Candida parapsilosis; SDB, 30 °C, 48 h; read-out: Minimum inhibitory concentration (MIC)
[11] = system: Candida parapsilosis 7; assay: MIC, broth microdilution (human pathogens); assay type: cell-based; conditions: Lodderomyces parapsilosis; Candida parapsilosis 7; SDB, 30 °C, 48 h; read-out: Minimum inhibitory concentration (MIC)
[12] = system: Candida zeylanoides 33; assay: MIC, broth microdilution (human pathogens); assay type: cell-based; conditions: Dujonia zeylanoides; Candida zeylanoides 33; SDB, 30 °C, 48 h; read-out: Minimum inhibitory concentration (MIC)
[13] = system: Saccharomyces cerevisiae 42; assay: MIC, broth microdilution (human pathogens); assay type: cell-based; conditions: Saccharomyces cerevisiae 42; SDB, 30 °C, 48 h; read-out: Minimum inhibitory concentration (MIC)
[14] = system: Aspergillus brasiliensis ATCC 16404; assay: MIC, broth microdilution (human pathogens); assay type: cell-based; conditions: ATCC16404; Aspergillus brasiliensis ATCC 16404; SDB, 30 °C, 48 h; read-out: Minimum inhibitory concentration (MIC)
[15] = system: Aspergillus candidus 3; assay: MIC, broth microdilution (human pathogens); assay type: cell-based; conditions: Aspergillus candidus 3; SDB, 30 °C, 48 h; read-out: Minimum inhibitory concentration (MIC)
[16] = system: Aspergillus candidus 25; assay: MIC, broth microdilution (human pathogens); assay type: cell-based; conditions: Aspergillus candidus 25; SDB, 30 °C, 48 h; read-out: Minimum inhibitory concentration (MIC)
[17] = system: Cryptococcus neoformans B 3501; assay: MIC, broth microdilution (human pathogens); assay type: cell-based; conditions: B3501; Cryptococcus neoformans B 3501; SDB, 30 °C, 48 h; read-out: Minimum inhibitory concentration (MIC)
[18] = system: Cryptococcus neoformans ATCC 11240; assay: MIC, broth microdilution (human pathogens); assay type: cell-based; conditions: ATCC11240; Cryptococcus neoformans ATCC 11240; SDB, 30 °C, 48 h; read-out: Minimum inhibitory concentration (MIC)
[19] = system: Cryptococcus 67; assay: MIC, broth microdilution (human pathogens); assay type: cell-based; conditions: Cryptococcus 67; SDB, 30 °C, 48 h; read-out: Minimum inhibitory concentration (MIC)
[20] = system: Cryptococcus var. grubii H99 serotype A; assay: MIC, broth microdilution (human pathogens); assay type: cell-based; conditions: Cryptococcus var. grubii H99 serotype A; SDB, 30 °C, 48 h; read-out: Minimum inhibitory concentration (MIC)
[21] = system: Candida strains; assay: Agar Disk Diffusion Assay, Candida strains; assay type: cell-based; conditions: for share of Candida strains with inhibition zone from 21 to 30 mm: 25 μg; for zone of inhibition at 25 µg/disc: positive controls, for the stated share of Candida strains
[22] = system: Alternaria alternata AL19; assay: MIC, micro-spectrophotometric growth assay (phytopathogens); assay type: cell-based; conditions: Alternaria alternata AL19; PDB, 24 °C, dark; imazalil at label dose; read-out: Minimum inhibitory concentration (MIC)
[23] = system: Botrytis cinerea B2; assay: as above; assay type: cell-based; conditions: Botrytis cinerea B2; PDB, 24 °C, dark; imazalil at label dose; read-out: Minimum inhibitory concentration (MIC)
[24] = system: Colletotrichum acutatum s.s. M146-2; assay: as above; assay type: cell-based, Colletotrichum acutatum sensu stricto; conditions: Colletotrichum acutatum s.s. M146-2, PDB, 24 °C, dark, imazalil at label dose, read-out: Minimum inhibitory concentration (MIC)
[25] = system: Coniella granati M0_C2; assay: as above; assay type: cell-based; conditions: Coniella granati M0_C2; PDB, 24 °C, dark; imazalil at label dose; read-out: Minimum inhibitory concentration (MIC)
[26] = system: other genera tested (other fungi strains); assay: Agar Disk Diffusion Assay, other genera; assay type: cell-based; conditions: 100 µg
Experimental: The antifungal activity of pomegranate compounds was evaluated against 19 clinically isolated fungal strains, including nine belonging to Candida albicans species, two belonging to Aspergillus genus, one belonging to Cryptococcus genus, and one Saccharomyces cerevisiae. The C. albicans strains were isolated on CHROMID agar, Aspergillus and Cryptococcus genus were isolated on SDA-CAF and one Saccharomyces cerevisiae on SDA. All the isolates were confirmed by matrix-assisted laser desorption ionization (MALDI) time-of-flight mass spectrometry (TOF/MS). Strains from the American Type Culture Collection (ATCC) were included. All strains were maintained in SDB with 20% (w/v) glycerol at −80 °C until use and sub-cultured in SDA before each test.
The preliminary determination of the antifungal activity of the target compounds (punicalagin, punicalin, ellagic acid, and gallic acid) from pomegranate was carried out by means of the agar disk diffusion assay, according to the standard procedure of the Clinical and Laboratory Standards Institute, with slight modifications. Plates containing SDA were uniformly spread with 100 μL of 10^3 conidia/mL of each strain suspension. […] Disks containing fluconazole (25 μg), amphotericin B (25 μg) and DMSO (20 μL) were used as the positive and the negative control, respectively. The antifungal activity of pomegranate compounds was evaluated by measuring the diameter of the clear inhibition zone formed right around the disks after 48 h incubation at 30 ± 1 °C. The experiment was carried out in triplicate.

MIC [2] [µM]	MIC [3] [µM]	MIC [4] [µM]	MIC [5] [µM]	MIC [6] [µM]	MIC [7] [µM]	MIC [8] [µM]	MIC [9] [µM]	MIC [10] [µM]	MIC [11] [µM]	MIC [12] [µM]	MIC [13] [µM]	MIC [14] [µM]	MIC [15] [µM]	MIC [16] [µM]	MIC [17] [µM]	MIC [18] [µM]	MIC [19] [µM]	MIC [20] [µM]	SMILES	share of Candida strains with inhibition zone from 21 to 30 mm [21] [%]	further results
–	–	–	–	–	–	–	–	–	–	–	–	–	–	–	–	–	–	–	CC[C@@]1(O)C(=O)OCc2c1cc1n(c2=O)Cc2cc3ccccc3nc2-1 [Camptothecin, camptothecin, reference compound]	–	IC50 [1]: 17.8 ± 0.7 µM
0.1 (≈ 0.0924 µg/mL)	0.1 (≈ 0.0924 µg/mL)	2.2 (≈ 2.03 µg/mL)	4.3 (≈ 3.97 µg/mL)	4.3 (≈ 3.97 µg/mL)	0.3 (≈ 0.277 µg/mL)	0.3 (≈ 0.277 µg/mL)	2.2 (≈ 2.03 µg/mL)	0.1 (≈ 0.0924 µg/mL)	0.3 (≈ 0.277 µg/mL)	0.1 (≈ 0.0924 µg/mL)	1.1 (≈ 1.02 µg/mL)	0.1 (≈ 0.0924 µg/mL)	0.3 (≈ 0.277 µg/mL)	0.3 (≈ 0.277 µg/mL)	0.1 (≈ 0.0924 µg/mL)	0.1 (≈ 0.0924 µg/mL)	0.1 (≈ 0.0924 µg/mL)	0.1 (≈ 0.0924 µg/mL)	C[C@@H]1[C@H](O)[C@@H](C)/C=C/C=C/C=C/C=C/C=C/C=C/C=C/[C@H](O[C@@H]2O[C@H](C)[C@@H](O)[C@H](N)[C@@H]2O)C[C@@H]2O[C@](O)(C[C@@H](O)C[C@@H](O)[C@H](O)CC[C@@H](O)C[C@@H](O)CC(=O)O[C@H]1C)C[C@H](O)[C@H]2C(=O)O [Amphotericin B, amphotericin B, reference compound]	46	zone of inhibition at 25 µg/disc [21]: 21 to 30 mm
40.8 (≈ 12.5 µg/mL)	9.8 (≈ 3 µg/mL)	81.6 (≈ 25 µg/mL)	163 (≈ 50 µg/mL)	81.6 (≈ 25 µg/mL)	163 (≈ 50 µg/mL)	81.6 (≈ 25 µg/mL)	81.6 (≈ 25 µg/mL)	9.8 (≈ 3 µg/mL)	19.6 (≈ 6 µg/mL)	19.6 (≈ 6 µg/mL)	4.9 (≈ 1.5 µg/mL)	4.9 (≈ 1.5 µg/mL)	9.8 (≈ 3 µg/mL)	9.8 (≈ 3 µg/mL)	4.9 (≈ 1.5 µg/mL)	4.9 (≈ 1.5 µg/mL)	9.8 (≈ 3 µg/mL)	4.9 (≈ 1.5 µg/mL)	OC(Cn1cncn1)(Cn1cncn1)c1ccc(F)cc1F [Fluconazole, fluconazole, reference compound]	73	zone of inhibition at 25 µg/disc [21]: 21 to 30 mm
–	–	–	–	–	–	–	–	–	–	–	–	–	–	–	–	–	–	–	C=CCOC(Cn1ccnc1)c1ccc(Cl)cc1Cl (stereo not shown) [Imazalil, imazalil, reference compound]	–	MIC [22]: 0.3 µM (≈ 0.0892 µg/mL); MIC [23]: 0.3 µM (≈ 0.0892 µg/mL); MIC ([24]; S.S.M1462): 0.3 µM (≈ 0.0892 µg/mL); MIC [25]: 0.3 µM (≈ 0.0892 µg/mL)

SMILES	MIC [2] [µM]	MIC [3] [µM]	MIC [4] [µM]	MIC [5] [µM]	MIC [6] [µM]	MIC [7] [µM]	MIC [8] [µM]	MIC [9] [µM]	MIC [10] [µM]	MIC [11] [µM]	MIC [12] [µM]	MIC [13] [µM]	MIC [14] [µM]	MIC [15] [µM]	MIC [16] [µM]	MIC [17] [µM]	MIC [18] [µM]	MIC [19] [µM]	MIC [20] [µM]	share of Candida strains with inhibition zone from 21 to 30 mm [21] [%]	further results
O=C(O)c1cc(O)c(O)c(O)c1 [Gallic Acid, gallic acid]	294 (≈ 50 µg/mL)	294 (≈ 50 µg/mL)	294 (≈ 50 µg/mL)	294 (≈ 50 µg/mL)	588 (≈ 100 µg/mL)	588 (≈ 100 µg/mL)	294 (≈ 50 µg/mL)	294 (≈ 50 µg/mL)	294 (≈ 50 µg/mL)	588 (≈ 100 µg/mL)	588 (≈ 100 µg/mL)	588 (≈ 100 µg/mL)	8.8 (≈ 1.5 µg/mL)	17.6 (≈ 2.99 µg/mL)	17.6 (≈ 2.99 µg/mL)	4.4 (≈ 0.749 µg/mL)	4.4 (≈ 0.749 µg/mL)	8.8 (≈ 1.5 µg/mL)	4.4 (≈ 0.749 µg/mL)	–	MIC [22]: 587.8 µM and 588 µM; MIC [23]: 587.8 µM and 588 µM; MIC [24]: 587.8 µM (≈ 100 µg/mL); MIC ([24]; S.S.M1462): 588 µM (≈ 100 µg/mL); MIC [25]: 587.8 µM and 588 µM; share of Candida strains with inhibition zone from 11 to 20 mm ([21]; 100 µg): 73%; share of other fungi strains with inhibition zone from 11 to 20 mm [26]: 25%
